Assay results as given in patent US20080254439A1, “Plant Extract and Use Thereof as a Cryoprotective Agent” (priority 2005, published 2008).

What was measured:
isolated rat hepatocytes = assay: Viability of suspensions of rat hepatocytes after freezing, calcein/PI test by flow cytometry; type: cell-based; conditions: 7 days of freezing; 1.5×10^6 cells/ml; 20 mg protein/extract or 15% DMSO in WME; FIG. 1
Method: Hepatocytes were isolated from male Sprague-Dawley rats (120-180 g), obtained from Charles River Canada (Saint-Constant, QC), in a two-step collagenase digestion technique (13; 14). […] Cell viability was evaluated by flow cytometry (FACScan™, Becton Dickinson, Oakville, ON) with 2 μM PI (16).
Cryopreservation of isolated hepatocytes. Immediately after isolation, the hepatocyte suspension was added to a mixture of ice-cold WME medium supplemented with 10% FBS and non-acclimated (NA) or CA wheat protein extracts (WPEs) in cold cryovials. […] The tubes containing cells were then frozen at a cooling rate of 1° C./min in a controlled freezing container (Nalgene, Rochester, N.Y.) to −80° C. for one day, and then transferred to liquid nitrogen.
Viability assays. After freeze/thaw cycles, hepatocyte suspensions were stained with the fluorescent probes 4 μM calcein and 2 μM PI in WME medium for 5 minutes. The samples were analyzed by flow cytometry (excitation at 488 nm) using a Becton Dickinson FACScan™. The number of live cells expressing green fluorescence of calcein and the number of dead cells expressing red fluorescence of PI were determined with Cell Quest™ software (Becton Dickinson, Oakville, ON).

rat hepatocytes [1] = assay: Viability of seeded thawed hepatocytes by LDH release; type: cell-based; conditions: after 24 h in culture; cryopreserved 7 days; FIG. 2
rat hepatocytes [2] = assay: Plating efficiency by LDH activity; type: cell-based; conditions: culture period 3 hours
Method: Thawing of cryopreserved hepatocytes. The frozen hepatocytes were thawed quickly by gentle agitation in a 37° C. water bath. Viability assays were performed on the hepatocyte suspension. For adherence and metabolic assays, the hepatocyte suspension was diluted 10-fold by addition of cold WME medium, immediately after thawing. […] After centrifugation (4° C., 50 g, 2 min), hepatocytes were suspended in 10 ml of WME medium. Hepatocytes were washed twice as above, then suspended at 3.5×10^5/ml in WME and cultured in tissue culture plates in WME medium supplemented with insulin and gentamicin in a humidified atmosphere of 5% CO2 and 95% air at 37° C. After 3 h, the medium was changed and cells were incubated overnight in L-15 medium supplemented with insulin and gentamicin. Plating efficiency. Plating efficiency was determined by measuring the LDH activity in cells prior to seeding and in 3 and 24 h-old cultures. Plating efficiency was defined as the LDH activity in 24 h-old cultures divided by the LDH activity in pre-culture cells.

rat hepatocytes [3] = assay: Adherence and cellular morphology by confocal microscopy; type: cell-based; conditions: 24 h after seeding, FIG. 3
Method: Adherence and cellular morphology. Adherence and cellular morphology were evaluated by confocal microscopy. For the confocal microscopy observations, tissue culture plates coated with collagen were used. All analyses were carried out using the confocal microscope MRC1024 from BioRad (Microscience, Cambridge, Mass.) equipped with an argon laser (excitation at 488 nm) combined with an inverted microscope Eclipse Model TE 3000 (Nikon, Montreal, QC) with objectives of 40× Hoffman.

rat hepatocytes [4] = assay: Albumin secretion by sandwich ELISA; type: cell-based; conditions: after 4 days in culture; FIG. 4A
Method: Determination of albumin secretion. Albumin secretion from hepatocytes was quantified every 24 h, until 96 h, in different hepatocyte culture media by the sandwich enzyme-linked immunosorbent assay (ELISA) according to Uotila et al. (19), with minor modifications (20). Briefly, 96-well plates (Nunc, Napierville, Ill.) were coated with anti-rat albumin rabbit antiserum (1 μg/ml). The plates were incubated for 30 min at room temperature (RT), then at 4° C. overnight, washed with phosphate buffered saline (PBS), blocked for 30 min at RT with 5% FBS in PBS, and then rewashed with PBS. Serial dilutions of sample and albumin standard were added (200 μl/well). The plates were incubated for III at RT and washed with PBS supplemented with 0.05% Tween-20 (PBS-T). Thereafter, the secondary antibody (peroxidase-conjugated anti-rat albumin; 2 μg/ml) was added and the plates were incubated for 1 h at RT. After 3 washings with PBS-T, the plates were incubated with the substrate o-phenylendiamine (OPND) (0.1 M NaH2PO4, 1 mg/ml OPND, 0.4 μl/ml H2O2) for 30 min at RT in the dark. The reaction was stopped with 4 M H2SO4. Albumin concentrations were determined at 550 nm using a standard curve ranging from 0 to 250 ng/dl of rat albumin using an ELISA reader ([sequence]luor Plus™, Tecan, Calif.).

rat hepatocytes [5] = assay: Ammonium detoxification to urea (urea determination); type: cell-based; conditions: after 4 days in culture; FIG. 4B
Method: Urea determination. To evaluate the hepatocyte-mediated biotransformation of ammonia to urea, seeded hepatocytes were exposed to L-15 culture medium containing 10 mM NH4Cl. Samples of media were collected at the beginning and after 24 h intervals of exposure to ammonia, during 3 days. Urea concentration in the samples was measured calorimetrically using the urea nitrogen reagent set (BioTron Diagnostics, Hemet, Calif.) and an ELISA reader at 540 nm. Concentrations of urea were determined using a standard curve ranging from 0 to 45 mg/dl of urea. The results are presented as μg urea/10^6 cells.

CYP1A1 = assay: EROD assay after 24 h induction with benzo-a-pyrene in cryopreserved hepatocytes; type: cell-based, rat; conditions: 48 h after seeding, FIG. 5A
Method: (§1) Enzymatic activity and protein expression of cytochrome P450 isoforms. CYP1A1 and 2B enzymatic activities were measured in hepatocyte cultures induced with benzo-a-pyrene (10 μM). Cells were washed 2 times with PBS and the substrates EROD (8 μM) or PROD (17 μM) (λexc: 530 nm; λem: 585 nm) were added to the culture dishes and incubated for 1 h. The supernatant (300 μl) was mixed with 200 μl of ETOH and the activity in 200 μl of the mixture was measured using an ELISA reader at 585 nm. Enzymatic activity was determined using a standard curve ranging from 0 to 200 μM of resorufin.

CYP2B = assay: PROD assay after 24 h induction with benzo-a-pyrene in cryopreserved hepatocytes; type: cell-based, rat; conditions: 48 h after seeding, FIG. 5A
Method: as §1

C[S+](C)[O-] [DMSO, dimethyl sulfoxide] was tested, and the “Viability of rat hepatocytes after freezing” value (isolated rat hepatocytes) was 62.5%, the “Viability (LDH) of thawed hepatocytes in culture” value (rat hepatocytes [1]) was 60.2% and the Plating efficiency (rat hepatocytes [2]) was 64.9 ± 1.7%. The Cell-to-cell contacts (rat hepatocytes [3]) was “no cell-cell contacts were detected”, the “Albumin secretory activity maintained” value (rat hepatocytes [4]) was 48% and the “Initial detoxification activity maintained (urea production)” value (rat hepatocytes [5]) was 16%. The “Relative activity of P450 CYP1A1 compared to fresh hepatocytes” value (CYP1A1) was “decreased slightly” and the “Relative activity of P450 CYP2B compared to fresh hepatocytes” value (CYP2B) was “decreased slightly”.
